Assay results reported in patent US20220401951A1, “RAPID CELL CULTURE TEST DEVICE INCLUDING ISLAND STRUCTURES” (QuantaMatrix Inc., priority 2020, published 2022).

Test system: P. aeruginosa ATCC 27853
Assay: antibiotic susceptibility test in the cell culture test device (solid thin film, microscopic observation)
Format: cell-based
Conditions: device of Example 1
Procedure: Colistin as an antibiotic was loaded into the island structure through the third inlet portion of each of the well units. The antibiotic was loaded in an amount of 10 μl, dried, and fixed in the shape illustrated in (b) of FIG. 5.
Thereafter, 10 μl of a mixture of agarose and a bacterial solution (P. aeruginosa ATCC 27853) as a first fluid was dispensed into the first accommodation space through the first inlet portion. After the introduction of the first fluid into the first accommodation space was completed, 100 μl of a culture medium as a second fluid was introduced into the second accommodation space through the second inlet portion.
In each of Examples 1-8 and Comparative Examples 1-4, 10 cell culture test devices having the same structure were manufactured. A determination was made as to whether the solid thin films of the first fluid were defective. The susceptibilities to the antibiotic at four selected points of each first accommodation space were evaluated. The four points (a, b, c, and d) were at right angles to the first inlet portion. […] The solid thin film in the first accommodation space was visually observed to determine whether the solid thin film was defective.
Particularly, the effect of the antibiotic was pronounced at ≥1 mg/ml.

Substance: Colistin
- response of bacteria in solid thin film to colistin (after 6 h, 0 to 2 mg/ml colistin (FIG. 10)): Clear responses were observed
- colistin concentration at which the effect of the antibiotic was pronounced (observation after 6 h, concentrations tested 0, 0.12, 0.25, 0.5, 1, 2 mg/ml (FIG. 10)): ≥ 1 mg/mL
